Measured values published in patent US20060069132A1, “Azolecarboxamide herbicides” (priority 2004, published 2006).

Experiments:
cocklebur = assay: Test C pre-/postemergence herbicide test; assay type: in vivo, Xanthium strumarium; conditions: preemergence; for Plant response rating (0 = no effect, 100 = complete control), Cocklebur: 125 g ai/ha
In short: (§1)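 Pre- and postemergence application, solvent/surfactant formulation; post at 1- to 4-leaf stage (2–18 cm). Greenhouse 12–14 d. Visual rating vs controls, 0 = no effect, 100 = complete control.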

johnsongrass = assay: Test C pre-/postemergence herbicide test; assay type: in vivo, Sorghum halepense; conditions: preemergence; for Plant response rating (0 = no effect, 100 = complete control), Johnsongrass: 125 g ai/ha
In short: as §1

rice = assay: Test C flooded paddy test; assay type: in vivo, Oryza sativa; conditions: for Plant response rating, Rice: 500 g ai/ha, visual rating after 12 to 14 days
In short: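 Injury scored visually against controls on a 0 (no effect) to 100 (complete control) scale, 12 to 14 days after treatment in greenhouse. Flooded paddy plants treated at 2-leaf stage; postemergence plants at 1- to 4-leaf stage, 2 to 18 cm tall.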

corn = assay: Test C pre-/postemergence herbicide test; assay type: in vivo, Zea mays; conditions: preemergence; for Plant response rating (0 = no effect, 100 = complete control), Corn: 125 g ai/ha
In short: as §1

woolly cupgrass = assay: Test C pre-/postemergence herbicide test; assay type: in vivo, Eriochloa villosa; conditions: preemergence; for Plant response rating (0 = no effect, 100 = complete control), Cupgrass, Woolly: 125 g ai/ha
In short: as §1

Surinam grass = assay: Test C pre-/postemergence herbicide test; assay type: in vivo, Urochloa decumbens; conditions: preemergence; for Plant response rating (0 = no effect, 100 = complete control), Surinam Grass: 125 g ai/ha
In short: as §1

lambsquarters = assay: Test C pre-/postemergence herbicide test; assay type: in vivo, Chenopodium album; conditions: preemergence; for Plant response rating (0 = no effect, 100 = complete control), Lambsquarters: 125 g ai/ha
In short: as §1

[1] = system: common (oilseed) sunflower; assay: Test C pre-/postemergence herbicide test; assay type: in vivo, Helianthus annuus; conditions: preemergence; for Plant response rating (0 = no effect, 100 = complete control), Sunflower: 125 g ai/ha
In short: as §1

eastern black nightshade = assay: Test C pre-/postemergence herbicide test; assay type: in vivo, Solanum ptycanthum; conditions: preemergence; for Plant response rating (0 = no effect, 100 = complete control), Nightshade: 125 g ai/ha
In short: as §1

kochia = assay: Test C pre-/postemergence herbicide test; assay type: in vivo, Kochia scoparia; conditions: preemergence; for Plant response rating (0 = no effect, 100 = complete control), Kochia: 125 g ai/ha
In short: as §1

[2] = 500 g ai/ha, scale 0 to 100 (0 no effect, 100 complete control), visual, 12 to 14 days
[3] = 125 g ai/ha, scale 0 to 100 (0 no effect, 100 complete control)
[4] = 250 g ai/ha, scale of 0 to 100, 0 is no effect, 100 is complete control
[5] = scale 0 to 100 (0 no effect, 100 complete control)

SMILES	Plant response rating, Cocklebur (cocklebur; 62 g ai/ha, scale 0 to 100)	Plant response rating (0 = no effect, 100 = complete control), Cocklebur (cocklebur)	Plant response rating, Cocklebur (cocklebur; 250 g ai/ha, scale 0-100)	Plant response rating, Cocklebur (cocklebur; [2])	Plant response rating, Johnsongrass (johnsongrass; 62 g ai/ha, scale 0 to 100)	Plant response rating (0 = no effect, 100 = complete control), Johnsongrass (johnsongrass)	Plant response rating, Johnsongrass (johnsongrass; 250 g ai/ha, scale 0-100)	Plant response rating, Johnsongrass (johnsongrass; [2])	Rice plant response rating (rice; 62 g ai/ha, scale 0 to 100)	Rice plant response rating (rice; [3])	Rice plant response rating (rice; [4])	Plant response rating, Rice (rice; [5])	Plant response rating, Corn (corn; 62 g ai/ha, scale 0 to 100)	Plant response rating (0 = no effect, 100 = complete control), Corn (corn)	Plant response rating, Corn (corn; 250 g ai/ha, scale 0-100)	Plant response rating, Corn (corn; [2])	Plant response rating, Cupgrass, Woolly (woolly cupgrass; 62 g ai/ha, scale 0 to 100)	Plant response rating (0 = no effect, 100 = complete control), Cupgrass, Woolly (woolly cupgrass)	Plant response rating, Cupgrass, Woolly (woolly cupgrass; 250 g ai/ha, scale 0-100)	Plant response rating, Cupgrass, Woolly (woolly cupgrass; [2])	further results
CCC1=NN(C(C)(C)C)CC1C(=O)Nc1cc(C(=O)N(C)CC)ccc1F (racemic) [Compound 342]	10	30	60	100	55	100	100	100	20	30	60	80	10	50	70	90	10	40	50	70	Plant response rating, Surinam Grass (Surinam grass; 62 g ai/ha, scale 0 to 100): 40; Plant response rating (0 = no effect, 100 = complete control), Surinam Grass (Surinam grass): 90; Plant response rating, Surinam Grass (Surinam grass; 250 g ai/ha, scale 0-100): 100; Plant response rating, Surinam Grass (Surinam grass; [2]): 100; Plant response rating, Lambsquarters (lambsquarters; 62 g ai/ha, scale 0 to 100): 70; Plant response rating (0 = no effect, 100 = complete control), Lambsquarters (lambsquarters): 90; Plant response rating, Lambsquarters (lambsquarters; 250 g ai/ha, scale 0-100): 100; Plant response rating, Lambsquarters (lambsquarters; [2]): 100; Plant response rating, Sunflower ([1]; 62 g ai/ha, scale 0 to 100): 5; Plant response rating (0 = no effect, 100 = complete control), Sunflower [1]: 20; Plant response rating, Sunflower ([1]; 250 g ai/ha, scale 0-100): 75; Plant response rating, Sunflower [1, 2]: 100; Plant response rating, Nightshade (eastern black nightshade; 62 g ai/ha, scale 0 to 100): 60; Plant response rating (0 = no effect, 100 = complete control), Nightshade (eastern black nightshade): 80; Plant response rating, Nightshade (eastern black nightshade; 250 g ai/ha, scale 0-100): 80; Plant response rating, Nightshade (eastern black nightshade; [2]): 85; Plant response rating, Kochia (kochia; 62 g ai/ha, scale 0 to 100): 50; Plant response rating (0 = no effect, 100 = complete control), Kochia (kochia): 100; Plant response rating, Kochia (kochia; 250 g ai/ha, scale 0-100): 100; Plant response rating, Kochia (kochia; [2]): 100
CCC1=NN(C(C)(C)C)CC1C(=O)Nc1cc(C(=O)N2CC=CC2)ccc1F (racemic) [Compound 340]	0	0	0	40	15	50	50	90	20	40	70	80	5	45	45	50	0	20	45	75	Plant response rating, Surinam Grass (Surinam grass; 62 g ai/ha, scale 0 to 100): 0; Plant response rating (0 = no effect, 100 = complete control), Surinam Grass (Surinam grass): 60; Plant response rating, Surinam Grass (Surinam grass; 250 g ai/ha, scale 0-100): 65; Plant response rating, Surinam Grass (Surinam grass; [2]): 85; Plant response rating, Lambsquarters (lambsquarters; 62 g ai/ha, scale 0 to 100): 70; Plant response rating (0 = no effect, 100 = complete control), Lambsquarters (lambsquarters): 80; Plant response rating, Lambsquarters (lambsquarters; 250 g ai/ha, scale 0-100): 100; Plant response rating, Lambsquarters (lambsquarters; [2]): 100; Plant response rating, Sunflower ([1]; 62 g ai/ha, scale 0 to 100): 0; Plant response rating (0 = no effect, 100 = complete control), Sunflower [1]: 0; Plant response rating, Sunflower ([1]; 250 g ai/ha, scale 0-100): 0; Plant response rating, Sunflower [1, 2]: 5; Plant response rating, Nightshade (eastern black nightshade; 62 g ai/ha, scale 0 to 100): 60; Plant response rating (0 = no effect, 100 = complete control), Nightshade (eastern black nightshade): 90; Plant response rating, Nightshade (eastern black nightshade; 250 g ai/ha, scale 0-100): 100; Plant response rating, Nightshade (eastern black nightshade; [2]): 100; Plant response rating, Kochia (kochia; 62 g ai/ha, scale 0 to 100): 10; Plant response rating (0 = no effect, 100 = complete control), Kochia (kochia): 20; Plant response rating, Kochia (kochia; 250 g ai/ha, scale 0-100): 90; Plant response rating, Kochia (kochia; [2]): 100
